ChEMBL document CHEMBL1136287, “Synthesis and testing of novel phenyl substituted side-chain analogues of classical cannabinoids” (Bioorg Med Chem Lett, 2003)

Columns and labels:
Cannabinoid receptor 1 [1] = molecular target: T1, Cannabinoid receptor 1 (Homo sapiens, UniProt P21554); assay: Binding affinity towards Cannabinoid receptor 1
Cannabinoid receptor 2 [2] = molecular target: T2, Cannabinoid receptor 2 (Homo sapiens, UniProt P34972); assay: Binding affinity towards Cannabinoid receptor 2
Cannabinoid receptor 1 [3] = molecular target: T1, Cannabinoid receptor 1; assay: Binding affinity towards Cannabinoid receptor 1 using CP-55940 as radioligand in HEK293 EBNA cells; format: cell-based
Cannabinoid receptor 2 [4] = molecular target: T2, Cannabinoid receptor 2; assay: Binding affinity towards Cannabinoid receptor 2 using CP-55940 as radioligand in HEK293 EBNA cells; format: cell-based

T1 sequence (P21554 whole entry): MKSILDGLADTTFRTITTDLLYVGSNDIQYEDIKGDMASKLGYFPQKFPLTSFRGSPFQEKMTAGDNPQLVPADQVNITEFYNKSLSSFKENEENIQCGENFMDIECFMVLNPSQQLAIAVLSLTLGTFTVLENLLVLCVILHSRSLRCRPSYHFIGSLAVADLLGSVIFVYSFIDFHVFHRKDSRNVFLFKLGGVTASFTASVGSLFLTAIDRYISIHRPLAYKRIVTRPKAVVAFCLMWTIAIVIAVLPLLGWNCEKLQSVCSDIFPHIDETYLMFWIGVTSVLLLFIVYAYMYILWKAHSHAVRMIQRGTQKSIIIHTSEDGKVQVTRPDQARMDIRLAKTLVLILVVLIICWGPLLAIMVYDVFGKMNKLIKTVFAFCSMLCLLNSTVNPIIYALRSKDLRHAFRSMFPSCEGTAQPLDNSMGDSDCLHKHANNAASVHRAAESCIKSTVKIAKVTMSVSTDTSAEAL
T2 sequence (P34972 whole entry): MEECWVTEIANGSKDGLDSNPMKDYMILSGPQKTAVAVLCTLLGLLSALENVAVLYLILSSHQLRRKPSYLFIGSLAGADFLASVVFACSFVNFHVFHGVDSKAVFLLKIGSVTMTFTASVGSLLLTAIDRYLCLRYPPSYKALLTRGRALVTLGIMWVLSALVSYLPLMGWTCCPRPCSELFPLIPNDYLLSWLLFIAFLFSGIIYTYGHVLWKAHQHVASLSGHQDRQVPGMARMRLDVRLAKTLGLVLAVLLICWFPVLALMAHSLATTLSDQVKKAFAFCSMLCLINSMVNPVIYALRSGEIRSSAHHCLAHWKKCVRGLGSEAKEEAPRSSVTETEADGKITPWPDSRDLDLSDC

Row | SMILES | Ki (Cannabinoid receptor 1 [1]) | Ki (Cannabinoid receptor 2 [2]) | Ki (Cannabinoid receptor 1 [3]) | Ki (Cannabinoid receptor 2 [4])
1 | CC1=CC[C@@H]2[C@@H](C1)c1c(O)cc(C3(C4CCCCC4)SCCS3)cc1OC2(C)C | 1.86 nM | 1.05 nM |  | 
2 | CC1=CC[C@@H]2[C@@H](C1)c1c(O)cc(C3(c4ccccc4)SCCS3)cc1OC2(C)C |  |  | 17.3 nM | 17.6 nM
3 | CC1=CC[C@@H]2[C@@H](C1)c1c(O)cc(C(C)(C)c3ccccc3)cc1OC2(C)C |  |  | 12.3 nM | 0.91 nM
4 | CC1=CC[C@@H]2[C@@H](C1)c1c(O)cc(C(C)(C)C3CCCCC3)cc1OC2(C)C |  |  | 0.57 nM | 0.65 nM
5 | CC1=CC[C@@H]2[C@@H](C1)c1c(O)cc(Cc3ccccc3)cc1OC2(C)C |  |  | 67.6 nM | 85.9 nM
